Molecules are shown by their SMILES.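 The compound was tested at five concentrations on cells cultured in 96-well plates, with a 48-hour exposure period. GI50: concentration for 50% inhibition of growth.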 Calls of active or inactive are those of the source. Cut-off read from the data, not from the text of the source: active = GI50 up to about 1.1 µM and inactive = higher.

Holding throughout (experiment): DTP human tumour cell line panel, 48 h
For test [1], the system named is NCI-H460.
Test [2] relates to OVCAR-4.
Test [3] relates to IGROV-1.
The subject of test [4] is A549.
The test system of test [5] is TK-10.
Test [6] deals with RXF 393.
Test [7] concerns SF-295.
In test [8] the test system is COLO 205.
For test [9], the system named is HCC 2998.
In test [10] the test system is SR.
Test [11] deals with SF-539.
Test [12] concerns OVCAR-5.
Test [13] relates to NCI-H522.
The test system of test [14] is SN12C.
Test [15] relates to U-251.
Test [16] has as its system SK-MEL-2.
For test [17], the system named is UACC-257.
For test [18], the system named is SK-OV-3.

With `COc1c(OC2OC(CO)C(O)C(O)C2O)cc2c(c1OC)-c1ccc(OC)c(=O)cc1[C@@H](NC(C)=O)CC2` (stereo not given in full), the GI50 in test [1] was > 100 µM (inactive); in test [2] it was > 100 µM (inactive); in test [3], 83 µM (inactive); in test [4], > 100 µM (inactive); in test [5], > 100 µM (inactive); in [6], 57.4 µM (inactive). Further, the GI50 in test [7] is > 89.7 µM (inactive); in [8], > 100 µM (inactive); in test [9], > 93.3 µM (inactive); in test [10], > 100 µM (inactive); in test [11], 64.9 µM (inactive); in [12], > 100 µM (inactive). In addition, the GI50 is 43.8 µM (inactive) in test [13]; > 91 µM (inactive) in test [14]; > 100 µM (inactive) in [15]; 35.1 µM (inactive) in test [16]; > 84.5 µM (inactive) in [17]; > 100 µM (inactive) in [18].
In the case of `NC1=NCC(c2ccccn2)C1c1ccc(F)cc1` (stereo not given), the GI50 in test [1], in test [2], in [3], in [4], in test [5] and in test [6] was > 100 µM (inactive) in each case. The GI50 in test [7], in test [8], in [9], in test [10], in test [11] and in test [12] was > 100 µM (inactive) in each case. In addition, the GI50 in test [13], in test [14], in [15], in test [16], in [17] and in [18] was > 100 µM (inactive) throughout.
For the molecule `C[Si](C)(c1ccccc1)C1CC(=O)CC(=O)C1`, the GI50 in [1] was > 100 µM (inactive); in [2], > 100 µM (inactive); in [3] it was 22.7 µM (inactive); in test [4], > 100 µM (inactive); in [5], > 100 µM (inactive); in test [6] it was 37.3 µM (inactive). The GI50 is > 100 µM (inactive) in test [7]; > 100 µM (inactive) in test [8]; > 100 µM (inactive) in [9]; > 100 µM (inactive) in [10]; 19.3 µM (inactive) in test [11]; > 100 µM (inactive) in [12]. In addition, the GI50 is 26.1 µM (inactive) in test [13]; > 100 µM (inactive) in [14]; > 100 µM (inactive) in test [15]; > 100 µM (inactive) in [16]; > 100 µM (inactive) in test [17]; > 100 µM (inactive) in test [18].
In the case of `Cc1cc2c(C(C)C)c(O)c(O)c(/C=N\CCO)c2c(O)c1-c1c(C)cc2c(C(C)C)c(O)c(O)c(/C=N/CCO)c2c1O`, the concentration for 50% growth inhibition (GI50) in test [1] is 1.12 µM (active); in test [2], 3.6 µM (inactive); in test [3], 1.91 µM (inactive); in test [4], 1.21 µM (inactive); in [5], 6.4 µM (inactive); in test [6], 3.56 µM (inactive). Besides, the GI50 is 2.15 µM (inactive) in [7]; 1.63 µM (inactive) in [8]; 2.9 µM (inactive) in [9]; 1.1 µM (active) in [10]; 2.54 µM (inactive) in test [11]; 3.66 µM (inactive) in test [12]. The GI50 in [13] is 2.04 µM (inactive); in [14] it was 2.84 µM (inactive); in test [15], 1.21 µM (inactive); in test [16] it was 3.15 µM (inactive); in test [17] it was 2.32 µM (inactive); in [18] it was 3.37 µM (inactive).
With `O=[N+]([O-])c1cccc(S(=O)(=O)N/N=C/c2cc(I)cc([N+](=O)[O-])c2O)c1`, the GI50 in test [1] was 34 µM (inactive); in test [2] it was 27.9 µM (inactive); in test [3] it was 36.3 µM (inactive); in test [4], > 100 µM (inactive); in test [5], 29.2 µM (inactive); in test [6], 26.4 µM (inactive). The GI50 in [7] was 32.7 µM (inactive); in test [8], 16.5 µM (inactive); in [9] it was 57 µM (inactive); in test [10], 26.9 µM (inactive); in test [11], 23.8 µM (inactive); in [12], 40.1 µM (inactive). Also, the GI50 in test [13] was 18.8 µM (inactive); in test [14] it was 24.2 µM (inactive); in test [15] it was 20.9 µM (inactive); in test [16], 19.7 µM (inactive); in test [17], 25.2 µM (inactive); in [18], 26.5 µM (inactive).
Consider `COC(=O)CCC(=O)CC(=O)C(=O)Nc1c(Cl)cc([N+](=O)[O-])cc1Cl`, for which the GI50 in test [1], in test [2], in test [3], in test [4], in [5] and in test [6] was > 100 µM (inactive) each time. The GI50 is > 100 µM (inactive) in test [7]; > 100 µM (inactive) in test [8]; > 100 µM (inactive) in test [9]; 27.2 µM (inactive) in [10]; > 100 µM (inactive) in [11]; > 100 µM (inactive) in test [12]. For the same molecule, the GI50 in test [13] was 45.3 µM (inactive); in [14], > 100 µM (inactive); in test [15], > 100 µM (inactive); in [16], > 100 µM (inactive); in [17] it was > 100 µM (inactive); in test [18], > 100 µM (inactive).
Take `O=C1C(N2C(=O)c3ccccc3C2=O)CN1C(COCc1ccccc1)c1ccc(OCc2ccccc2)cc1` (stereo not given): the GI50 in [1], in test [2], in [3], in test [4], in [5] and in [6] was > 100 µM (inactive) throughout. Besides, the GI50 in [7], in test [8], in test [9], in test [10], in test [11] and in [12] was > 100 µM (inactive) throughout. Moreover, the GI50 in test [13], in test [14], in [15], in [17] and in [18] was > 100 µM (inactive) throughout.
Regarding `CCOc1ccc(NC(=O)CC2C(=O)Nc3ccccc3[S+]2[O-])cc1` (stereo not given), the GI50 was > 80.4 µM (inactive) in test [1]; > 57.1 µM (inactive) in test [2]; > 90.6 µM (inactive) in test [3]; > 94 µM (inactive) in test [4]; > 71.4 µM (inactive) in test [5]; 37.8 µM (inactive) in [6]. Besides, the GI50 in test [7] was > 100 µM (inactive); in test [8], > 100 µM (inactive); in [9], > 64.7 µM (inactive); in test [10] it was 29.5 µM (inactive); in test [11] it was > 67.8 µM (inactive); in test [12], > 100 µM (inactive). Further, the GI50 is > 100 µM (inactive) in test [13]; > 71 µM (inactive) in [14]; 52.4 µM (inactive) in [15]; > 100 µM (inactive) in test [16]; > 100 µM (inactive) in test [17]; > 100 µM (inactive) in test [18].
As for `C[n+]1c2ccccc2c(CNCC(=O)O)c2ccccc21`, the GI50 in test [1] is 3.76 µM (inactive); in [2], 12.6 µM (inactive); in [3], 5.96 µM (inactive); in test [4], 3.76 µM (inactive); in test [5] it was 0.708 µM (active); in test [6] it was 2.38 µM (inactive). For the same molecule, the GI50 in [7] is 5.07 µM (inactive); in test [8], 0.418 µM (active); in [9], 5.92 µM (inactive); in [10], 0.238 µM (active); in test [11], 2.12 µM (inactive); in test [12], 15.2 µM (inactive). Also, the GI50 in test [13] is 0.137 µM (active); in test [14], 0.562 µM (active); in test [15] it was 3.62 µM (inactive); in test [16] it was 2.43 µM (inactive); in test [17], 10.9 µM (inactive); in test [18] it was 4.74 µM (inactive).
With `Cc1ccc(S(=O)(=O)NC2(C=O)CCC(C(C)(C)C)CC2)cc1` (stereo not given), the GI50 was 32.3 µM (inactive) in [1]; 27.7 µM (inactive) in test [2]; 37.7 µM (inactive) in [3]; 35.1 µM (inactive) in test [4]; 33.8 µM (inactive) in test [5]; 27.3 µM (inactive) in test [6]. For the same molecule, the GI50 in test [7] was 31.3 µM (inactive); in [8], 26.7 µM (inactive); in [9], 36.9 µM (inactive); in test [10] it was 15.2 µM (inactive); in test [11], 44.6 µM (inactive); in test [12], 79.3 µM (inactive). Moreover, the GI50 in [13] is 24.3 µM (inactive); in test [14], 26.1 µM (inactive); in test [15] it was 34.3 µM (inactive); in test [16], 44.6 µM (inactive); in test [17], 34.9 µM (inactive); in test [18], > 100 µM (inactive).
Regarding `COc1nc2c(c(O)c(C)c(=O)n2OC2OCC(OC(C)=O)C(OC(C)=O)C2OC(C)=O)c(=O)n1C` (stereo not given), the GI50 in test [1], in test [2], in test [3], in test [4], in test [5] and in [6] was > 100 µM (inactive) throughout. For the same molecule, the GI50 is > 100 µM (inactive) in [7]; > 100 µM (inactive) in [8]; > 100 µM (inactive) in test [9]; > 100 µM (inactive) in test [10]; 60.4 µM (inactive) in [11]; > 100 µM (inactive) in test [12]. In addition, the GI50 in test [13] is 91.8 µM (inactive); in test [14] it was > 100 µM (inactive); in [15] it was > 100 µM (inactive); in test [16], > 100 µM (inactive).

In general, GI50 refers to the concentration that inhibits growth by half.
